Results on four compounds are retold here after ChEMBL document CHEMBL3994622, “Design and synthesis of new RAF kinase-inhibiting antiproliferative quinoline derivatives. Part 2: Diarylurea derivatives” (Eur J Med Chem, 2017).

Format in all cases: functional
The subject of experiment [1] is NCI-H23. In words: Growth inhibition of human NCI-H23 cells assessed as cell growth at 0.01 uM incubated for 48 hrs by sulforhodamine B assay relative to control. As to conditions: NCI-H23, 48 h, read-out: Activity. (In general: The SRB assay estimates cell density from bound dye.)
The subject of experiment [2] is SK-MEL-5. The experiment can be described thus: Growth inhibition of human SK-MEL-5 cells assessed as cell growth at 0.01 uM incubated for 48 hrs by sulforhodamine B assay relative to control. The settings on record: SK-MEL-5, 48 h, read-out: Activity.
For experiment [3], the system named is NCI-H522. In words: Growth inhibition of human NCI-H522 cells assessed as cell growth at 0.1 uM incubated for 48 hrs by sulforhodamine B assay relative to control. The settings on record: NCI-H522, 48 h, read-out: Activity.
In experiment [4] the test system is LOX IMVI. The experiment can be described thus: Growth inhibition of human LOXIMVI cells assessed as cell growth at 0.1 uM incubated for 48 hrs by sulforhodamine B assay relative to control. The settings on record: read-out: Activity.
Experiment [5] deals with 786-0. In words: Growth inhibition of human 786-0 cells assessed as cell growth at 0.1 uM incubated for 48 hrs by sulforhodamine B assay relative to control. The settings on record: 786-0, 48 h, read-out: Activity.
In experiment [6] the test system is NCI-H226. The experiment can be described thus: Growth inhibition of human NCI-H226 cells assessed as cell growth at 1 uM incubated for 48 hrs by sulforhodamine B assay relative to control. The settings on record: NCI-H226, 48 h, read-out: Activity.
The test system of experiment [7] is 786-0. The experiment can be described thus: Growth inhibition of human 786-0 cells assessed as cell growth at 1 uM incubated for 48 hrs by sulforhodamine B assay relative to control. The settings on record: 786-0, 48 h, read-out: Activity.
The subject of experiment [8] is PC-3. The experiment can be described thus: Growth inhibition of human PC3 cells assessed as cell growth at 1 uM incubated for 48 hrs by sulforhodamine B assay relative to control. The settings on record: PC-3, 48 h, read-out: Activity.
Experiment [9] concerns DU-145. The experiment can be described thus: Growth inhibition of human DU145 cells assessed as cell growth at 1 uM incubated for 48 hrs by sulforhodamine B assay relative to control. As to conditions: DU-145, 48 h, read-out: Activity.
In experiment [10] the test system is EKVX. The experiment can be described thus: Growth inhibition of human EKVX cells assessed as cell growth at 10 uM incubated for 48 hrs by sulforhodamine B assay relative to control. As to conditions: read-out: Activity.
Experiment [11] relates to NCI-H226. In words: Growth inhibition of human NCI-H226 cells assessed as cell growth at 10 uM incubated for 48 hrs by sulforhodamine B assay relative to control. As to conditions: NCI-H226, 48 h, read-out: Activity.
The subject of experiment [12] is MDA-MB-435. In words: Growth inhibition of human MDA-MB-435 cells assessed as cell growth at 10 uM incubated for 48 hrs by sulforhodamine B assay relative to control. The settings on record: MDA-MB-435, 48 h, read-out: Activity.
Experiment [13] concerns MCF7. The experiment can be described thus: Growth inhibition of human MCF7 cells assessed as cell growth at 10 uM incubated for 48 hrs by sulforhodamine B assay relative to control. The settings on record: MCF7, 48 h, read-out: Activity.
Experiment [14] deals with NCI-H460. The experiment can be described thus: Growth inhibition of human NCI-H460 cells assessed as cell growth at 100 uM incubated for 48 hrs by sulforhodamine B assay relative to control. The settings on record: NCI-H460, 48 h, read-out: Activity.
For experiment [15], the system named is NCI-H522. The experiment can be described thus: Growth inhibition of human NCI-H522 cells assessed as cell growth at 100 uM incubated for 48 hrs by sulforhodamine B assay relative to control. As to conditions: NCI-H522, 48 h, read-out: Activity.
The test system of experiment [16] is MDA-MB-435. In words: Growth inhibition of human MDA-MB-435 cells assessed as cell growth at 100 uM incubated for 48 hrs by sulforhodamine B assay relative to control. The settings on record: MDA-MB-435, 48 h, read-out: Activity.
The test system of experiment [17] is NCI-H522. In words: Growth inhibition of human NCI-H522 cells assessed as cell growth at 0.003 uM incubated for 48 hrs by sulforhodamine B assay relative to control. The settings on record: NCI-H522, 48 h, read-out: Activity.
Experiment [18] relates to Hs-578T. The experiment can be described thus: Growth inhibition of human Hs 578T cells assessed as cell growth at 0.003 uM incubated for 48 hrs by sulforhodamine B assay relative to control. As to conditions: read-out: Activity.
In experiment [19] the test system is K562. The experiment can be described thus: Growth inhibition of human K562 cells assessed as cell growth at 0.03 uM incubated for 48 hrs by sulforhodamine B assay relative to control. As to conditions: K562, 48 h, read-out: Activity.
For experiment [20], the system named is HOP-62. In words: Growth inhibition of human HOP62 cells assessed as cell growth at 0.03 uM incubated for 48 hrs by sulforhodamine B assay relative to control. As to conditions: HOP-62, 48 h, read-out: Activity.
In experiment [21] the test system is NCI-H522. The experiment can be described thus: Growth inhibition of human NCI-H522 cells assessed as cell growth at 0.03 uM incubated for 48 hrs by sulforhodamine B assay relative to control. The settings on record: NCI-H522, 48 h, read-out: Activity.
Experiment [22] deals with SF-295. In words: Growth inhibition of human SF295 cells assessed as cell growth at 0.03 uM incubated for 48 hrs by sulforhodamine B assay relative to control. As to conditions: SF-295, 48 h, read-out: Activity.
The subject of experiment [23] is BT-549. The experiment can be described thus: Growth inhibition of human BT549 cells assessed as cell growth at 0.03 uM incubated for 48 hrs by sulforhodamine B assay relative to control. The settings on record: BT-549, 48 h, read-out: Activity.
The subject of experiment [24] is CCRF-CEM. The experiment can be described thus: Growth inhibition of human CCRF-CEM cells assessed as cell growth at 0.3 uM incubated for 48 hrs by sulforhodamine B assay relative to control. As to conditions: read-out: Activity.
The subject of experiment [25] is NCI-H23. The experiment can be described thus: Growth inhibition of human NCI-H23 cells assessed as cell growth at 0.3 uM incubated for 48 hrs by sulforhodamine B assay relative to control. As to conditions: NCI-H23, 48 h, read-out: Activity.
Experiment [26] deals with SF-539. In words: Growth inhibition of human SF539 cells assessed as cell growth at 0.3 uM incubated for 48 hrs by sulforhodamine B assay relative to control. The settings on record: SF-539, 48 h, read-out: Activity.
Experiment [27] relates to U-251. In words: Growth inhibition of human U251 cells assessed as cell growth at 0.3 uM incubated for 48 hrs by sulforhodamine B assay relative to control. As to conditions: U-251, 48 h, read-out: Activity.
Experiment [28] concerns TK-10. In words: Growth inhibition of human TK10 cells assessed as cell growth at 0.3 uM incubated for 48 hrs by sulforhodamine B assay relative to control. The settings on record: TK-10, 48 h, read-out: Activity.
Experiment [29] concerns T47D. The experiment can be described thus: Growth inhibition of human T47D cells assessed as cell growth at 0.3 uM incubated for 48 hrs by sulforhodamine B assay relative to control. The settings on record: read-out: Activity.
For experiment [30], the system named is HOP-62. The experiment can be described thus: Growth inhibition of human HOP62 cells assessed as cell growth at 3 uM incubated for 48 hrs by sulforhodamine B assay relative to control. The settings on record: HOP-62, 48 h, read-out: Activity.
Experiment [31] relates to NCI-H460. The experiment can be described thus: Growth inhibition of human NCI-H460 cells assessed as cell growth at 3 uM incubated for 48 hrs by sulforhodamine B assay relative to control. As to conditions: NCI-H460, 48 h, read-out: Activity.
For experiment [32], the system named is TK-10. In words: Growth inhibition of human TK10 cells assessed as cell growth at 3 uM incubated for 48 hrs by sulforhodamine B assay relative to control. As to conditions: TK-10, 48 h, read-out: Activity.
Experiment [33] has as its system MCF7. The experiment can be described thus: Growth inhibition of human MCF7 cells assessed as cell growth at 3 uM incubated for 48 hrs by sulforhodamine B assay relative to control. As to conditions: MCF7, 48 h, read-out: Activity.
Experiment [34] relates to SF-268. The experiment can be described thus: Growth inhibition of human SF268 cells assessed as cell growth at 30 uM incubated for 48 hrs by sulforhodamine B assay relative to control. The settings on record: SF-268, 48 h, read-out: Activity.
The test system of experiment [35] is SK-MEL-2. In words: Growth inhibition of human SK-MEL-2 cells assessed as cell growth at 30 uM incubated for 48 hrs by sulforhodamine B assay relative to control. The settings on record: SK-MEL-2, 48 h, read-out: Activity.

Turning to `COc1cc2cc(Oc3ccc(NC(=O)Nc4ccc(Cl)c(Cl)c4)cc3)c(C)nc2cc1OC`, the growth at 0.01 µM in experiment [1] amounted to 98%; in experiment [2] it was 103%. Also, the growth at 0.1 µM was 99% in experiment [3], 96% in experiment [4] and 95% in [5]. Moreover, the growth at 1 µM was determined as 106% in experiment [6], 86% in experiment [7], 67% in [8] and 102% in experiment [9]. The growth at 10 µM is -2% in experiment [10], -7% in [11], 13% in [12] and 8% in [13]. The results for the growth at 100 µM in experiment [14], in experiment [15] and in [16] were -76%, -63% and -45%, respectively.

Regarding `COc1cc2cc(Oc3ccc(NC(=O)Nc4ccc(Cl)c(C(F)(F)F)c4)cc3)c(C)nc2cc1OC`, the growth at 0.003 µM in experiment [17] worked out at 91%; in experiment [18], 83%. Further, the growth at 0.03 µM was determined as 102% in experiment [19]; 106% in [20]; 93% in experiment [21]; 91% in experiment [22]; 83% in experiment [23]. Also, the growth at 0.3 µM was 101% in [24]; 92% in experiment [25]; 107% in experiment [26]; 94% in [27]; 100% in experiment [28]; 92% in experiment [29]. Besides, the growth at 3 µM in experiment [30] was 26%; in [31], 3%; in experiment [32] it was 18%; in [33], 7%. Further, the growth at 30 µM in experiment [34] was -64%; in [35] it was -69%.

Turning to `COc1cc2cc(Oc3ccc(NC(=O)Nc4cc(C(F)(F)F)cc(C(F)(F)F)c4)cc3)c(C)nc2cc1OC`, the values for the growth at 0.01 µM in experiment [1] and in [2] were 99% and 100%, respectively. Moreover, the growth at 0.1 µM in experiment [3] came out at 77%; in experiment [4], 95%; in experiment [5] it was 92%. Further, the growth at 1 µM in [6] amounted to 88%; in experiment [7], 87%; in experiment [8], 27%; in [9], 82%. Also, the growth at 10 µM is -55% in experiment [10], -60% in experiment [11], -49% in [12] and -59% in [13]. Also, the growth at 100 µM in experiment [14] was -73%; in experiment [15], -79%; in experiment [16], -63%.

Turning to `Cc1nc2cc(O)c(O)cc2cc1Oc1ccc(NC(=O)Nc2ccc(Cl)c(Cl)c2)cc1`, the growth at 0.003 µM in experiment [17] was 95%; in experiment [18], 93%. Besides, the growth at 0.03 µM is 110% in [19]; 105% in [20]; 95% in [21]; 90% in [22]; 94% in experiment [23]. Further, the growth at 0.3 µM in [24] is 98%; in [25] it was 94%; in experiment [26], 99%; in experiment [27] it was 87%; in experiment [28] it was 98%; in experiment [29], 101%. Also, the growth at 3 µM in experiment [30] stood at 87%; in experiment [31], 96%; in experiment [32], 98%; in experiment [33] it was 87%. In addition, the figures for the growth at 30 µM in [34] and in experiment [35] were 1% and -25%, respectively.
